# Like-named read-outs stand apart in the source and are kept apart here.
# Experiments:
# Format in all cases: cell-based
# [1] = molecular target: T1, rNaV1.4 (Rattus norvegicus, UniProt P15390); test: Whole-cell patch-clamp inhibition of rNaV1.4 in HEK 293 cells; conditions: HEK 293 cells with β1 subunit, 50-ms depolarization to −10 mV from −100 mV every 5 s, Hill fit, mean ± S.E., room temperature
# T1 construct: expressed in transfected cells; host or cells: HEK 293 cells, transient transfection
# T1 sequence (P15390 whole entry): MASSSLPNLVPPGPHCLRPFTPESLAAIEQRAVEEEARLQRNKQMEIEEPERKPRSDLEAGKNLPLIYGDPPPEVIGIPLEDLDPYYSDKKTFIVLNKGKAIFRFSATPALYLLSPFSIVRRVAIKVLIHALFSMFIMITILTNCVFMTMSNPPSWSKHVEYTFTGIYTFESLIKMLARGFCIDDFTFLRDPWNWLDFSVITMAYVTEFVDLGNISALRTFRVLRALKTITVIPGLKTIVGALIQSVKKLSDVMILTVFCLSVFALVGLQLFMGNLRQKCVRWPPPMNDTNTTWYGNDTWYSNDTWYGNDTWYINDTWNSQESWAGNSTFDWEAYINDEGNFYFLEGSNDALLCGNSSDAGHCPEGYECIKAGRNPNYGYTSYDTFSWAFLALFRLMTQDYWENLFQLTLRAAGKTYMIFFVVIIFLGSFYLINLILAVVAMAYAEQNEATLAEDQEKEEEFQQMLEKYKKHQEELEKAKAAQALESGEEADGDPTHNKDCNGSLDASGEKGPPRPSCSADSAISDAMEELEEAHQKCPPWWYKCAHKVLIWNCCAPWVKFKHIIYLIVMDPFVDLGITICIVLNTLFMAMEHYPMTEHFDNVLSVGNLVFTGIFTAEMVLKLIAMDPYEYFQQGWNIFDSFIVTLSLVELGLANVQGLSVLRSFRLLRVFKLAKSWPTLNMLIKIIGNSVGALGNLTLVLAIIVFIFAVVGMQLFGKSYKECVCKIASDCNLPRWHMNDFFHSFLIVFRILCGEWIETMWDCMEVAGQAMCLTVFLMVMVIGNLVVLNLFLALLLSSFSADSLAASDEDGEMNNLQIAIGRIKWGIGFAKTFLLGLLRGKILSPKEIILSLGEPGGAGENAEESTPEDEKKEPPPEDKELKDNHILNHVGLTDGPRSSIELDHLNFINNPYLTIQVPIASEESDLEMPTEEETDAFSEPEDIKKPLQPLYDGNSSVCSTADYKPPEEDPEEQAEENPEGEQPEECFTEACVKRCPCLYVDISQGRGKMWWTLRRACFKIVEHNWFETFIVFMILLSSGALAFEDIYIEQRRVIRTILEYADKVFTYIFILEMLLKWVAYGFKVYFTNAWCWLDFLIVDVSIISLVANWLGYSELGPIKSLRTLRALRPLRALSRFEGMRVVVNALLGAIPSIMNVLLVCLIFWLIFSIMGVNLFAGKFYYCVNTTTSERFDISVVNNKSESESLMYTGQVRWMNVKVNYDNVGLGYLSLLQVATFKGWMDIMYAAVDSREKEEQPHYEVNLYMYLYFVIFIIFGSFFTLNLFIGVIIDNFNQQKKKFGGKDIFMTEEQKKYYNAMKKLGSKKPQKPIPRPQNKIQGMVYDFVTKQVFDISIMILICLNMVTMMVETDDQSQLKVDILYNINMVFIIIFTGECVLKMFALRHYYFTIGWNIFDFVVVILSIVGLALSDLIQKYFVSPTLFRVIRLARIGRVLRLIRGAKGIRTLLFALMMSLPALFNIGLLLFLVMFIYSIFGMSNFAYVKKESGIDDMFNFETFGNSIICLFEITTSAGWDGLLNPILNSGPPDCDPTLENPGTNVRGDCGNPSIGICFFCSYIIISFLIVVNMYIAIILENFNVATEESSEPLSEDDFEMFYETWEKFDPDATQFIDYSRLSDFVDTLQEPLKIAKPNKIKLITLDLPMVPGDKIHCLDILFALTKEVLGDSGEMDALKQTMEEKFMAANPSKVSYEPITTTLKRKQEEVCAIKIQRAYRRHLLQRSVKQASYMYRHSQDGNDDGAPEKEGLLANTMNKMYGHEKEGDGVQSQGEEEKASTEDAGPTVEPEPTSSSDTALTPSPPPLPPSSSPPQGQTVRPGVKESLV
# T1 sequence (Q07699 19-218, further chain): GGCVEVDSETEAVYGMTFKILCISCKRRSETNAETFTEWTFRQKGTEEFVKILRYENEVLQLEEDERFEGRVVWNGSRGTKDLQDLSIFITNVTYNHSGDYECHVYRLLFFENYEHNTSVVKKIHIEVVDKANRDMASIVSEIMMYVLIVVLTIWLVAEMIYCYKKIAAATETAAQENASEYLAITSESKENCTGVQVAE
# Excerpt: (§1) Using whole-cell voltage clamp recording techniques, currents were elicited by a 50-ms depolarizing potential of −10 mV from a holding potential of −100 mV every 5 s. […] The time constants for these inhibitions were 34.01 ± 6.81 and 34.24 ± 8.13 s, respectively (Figure 1a,d). […] Dose-response curves for NaV1 subtypes tested are summarized in Figure 1e and consist of at least three data points for each concentration.
# After purification, we characterized the interaction of each mutant toxin with NaV1.4. Under whole-cell patch clamp configuration, rNaV1.4 current was elicited by a 50-ms depolarizing potential of −10 mV from a holding potential of −100 mV every 5 s.
# All the voltage gated sodium channels subtypes (hNaV1.3, rNaV1.4, hNaV1.5 and hNaV1.7), along with β1 subunit to increase the current density and green fluorescent protein to serve as the report protein, were individually transiently transfected into HEK 293 cells using the lipofectamine 2000 (Invitrogen, Carlsbad, CA, USA) according to its manufacturer’s instructions. HEK293 cells were cultured under standard cell culture condition (5% CO2; 37 °C) in DMEM supplemented with 10% FBS. At 36–72 h after transfection, cells with green fluorescence were selected for whole-cell patch-clamp recording at room temperature. The pipette solution contained (in mM): 140 CsF, 10 NaCl, 10 HEPES and 1 EGFA, pH7.3. The bathing solution contained (in mM): 140 NaCl, 10 HEPES, 3 KCl, 1 MgCl2 and 1 CaCl2, pH7.3.
# Sodium currents were recorded on experimental cells using whole-cell patch-clamp techniques at room temperature (20–25 °C). Patch pipettes with DC resistance of 2~3 MΩ were fabricated from borosilicate glass tubing (VWR micropipettes; VWR Co., West Chester, PA, USA) using a two-stage vertical microelectrode puller (PC-10; Narishige, Tokyo, Japan) and fire-polished by a heater (Narishige, Tokyo, Japan). Whole-cell patch-clamp recordings were performed by an Axon 700B patch-clamp amplifier (Axon Instruments, Irvine, CA, USA). The P/4 protocol was used to subtract linear capacitive and leakage currents. Experimental data were acquired and analyzed using the programs Clampfit 10.0 (Axon Instruments, Irvine, CA, USA) and Sigmaplot 90 (Sigma, St. Louis, MO, USA).
# Before use, the solution was diluted to the concentration of interest with fresh bathing solution. Toxin was introduced into the recording chamber (volume of 300 μL) and mixed by repeatedly pipetting 30 μL to achieve the demanded final concentration. The mixing process typically took ~5 s.
# Data were analyzed using the Clampfit (Molecular Devices, Irvine, CA, USA) and Sigmaplot 10.0 (Sigma, St. Louis, MO, USA) software programs. All data points are shown as mean ± S.E. n is the number of the separated experimental cells. […] The Hill coefficient was set to 1 except where indicated. The box plots were generated at http://boxplot.tyerslab.com. In the box plots, center lines show the medians; box limits indicate the 25th and 75th percentiles as determined by R software; whiskers extend 1.5 times the interquartile range from the 25th and 75th percentiles, outliers are represented by dots. Time courses were fitted by using single exponential decay function.
# [2] = molecular target: T2, hNaV1.7 (Homo sapiens, UniProt Q15858); test: Whole-cell patch-clamp inhibition of hNaV1.7 in HEK 293 cells; conditions: 100 nM toxin, approximate
# T2 construct: expressed in transfected cells; host or cells: HEK 293 cells, transient transfection
# [3] = molecular target: T3, hNaV1.3 (Homo sapiens, UniProt Q9NY46); test: Whole-cell patch-clamp inhibition of hNaV1.3 in HEK 293 cells; conditions: 100 nM toxin, approximate
# T3 construct: expressed in transfected cells; host or cells: HEK 293 cells, transient transfection
# [4] = molecular target: T4, hNaV1.5 (Homo sapiens, UniProt Q14524); test: Whole-cell patch-clamp inhibition of hNaV1.5 in HEK 293 cells
# T4 construct: expressed in transfected cells; host or cells: HEK 293 cells, transient transfection
# T4 sequence (Q14524 whole entry): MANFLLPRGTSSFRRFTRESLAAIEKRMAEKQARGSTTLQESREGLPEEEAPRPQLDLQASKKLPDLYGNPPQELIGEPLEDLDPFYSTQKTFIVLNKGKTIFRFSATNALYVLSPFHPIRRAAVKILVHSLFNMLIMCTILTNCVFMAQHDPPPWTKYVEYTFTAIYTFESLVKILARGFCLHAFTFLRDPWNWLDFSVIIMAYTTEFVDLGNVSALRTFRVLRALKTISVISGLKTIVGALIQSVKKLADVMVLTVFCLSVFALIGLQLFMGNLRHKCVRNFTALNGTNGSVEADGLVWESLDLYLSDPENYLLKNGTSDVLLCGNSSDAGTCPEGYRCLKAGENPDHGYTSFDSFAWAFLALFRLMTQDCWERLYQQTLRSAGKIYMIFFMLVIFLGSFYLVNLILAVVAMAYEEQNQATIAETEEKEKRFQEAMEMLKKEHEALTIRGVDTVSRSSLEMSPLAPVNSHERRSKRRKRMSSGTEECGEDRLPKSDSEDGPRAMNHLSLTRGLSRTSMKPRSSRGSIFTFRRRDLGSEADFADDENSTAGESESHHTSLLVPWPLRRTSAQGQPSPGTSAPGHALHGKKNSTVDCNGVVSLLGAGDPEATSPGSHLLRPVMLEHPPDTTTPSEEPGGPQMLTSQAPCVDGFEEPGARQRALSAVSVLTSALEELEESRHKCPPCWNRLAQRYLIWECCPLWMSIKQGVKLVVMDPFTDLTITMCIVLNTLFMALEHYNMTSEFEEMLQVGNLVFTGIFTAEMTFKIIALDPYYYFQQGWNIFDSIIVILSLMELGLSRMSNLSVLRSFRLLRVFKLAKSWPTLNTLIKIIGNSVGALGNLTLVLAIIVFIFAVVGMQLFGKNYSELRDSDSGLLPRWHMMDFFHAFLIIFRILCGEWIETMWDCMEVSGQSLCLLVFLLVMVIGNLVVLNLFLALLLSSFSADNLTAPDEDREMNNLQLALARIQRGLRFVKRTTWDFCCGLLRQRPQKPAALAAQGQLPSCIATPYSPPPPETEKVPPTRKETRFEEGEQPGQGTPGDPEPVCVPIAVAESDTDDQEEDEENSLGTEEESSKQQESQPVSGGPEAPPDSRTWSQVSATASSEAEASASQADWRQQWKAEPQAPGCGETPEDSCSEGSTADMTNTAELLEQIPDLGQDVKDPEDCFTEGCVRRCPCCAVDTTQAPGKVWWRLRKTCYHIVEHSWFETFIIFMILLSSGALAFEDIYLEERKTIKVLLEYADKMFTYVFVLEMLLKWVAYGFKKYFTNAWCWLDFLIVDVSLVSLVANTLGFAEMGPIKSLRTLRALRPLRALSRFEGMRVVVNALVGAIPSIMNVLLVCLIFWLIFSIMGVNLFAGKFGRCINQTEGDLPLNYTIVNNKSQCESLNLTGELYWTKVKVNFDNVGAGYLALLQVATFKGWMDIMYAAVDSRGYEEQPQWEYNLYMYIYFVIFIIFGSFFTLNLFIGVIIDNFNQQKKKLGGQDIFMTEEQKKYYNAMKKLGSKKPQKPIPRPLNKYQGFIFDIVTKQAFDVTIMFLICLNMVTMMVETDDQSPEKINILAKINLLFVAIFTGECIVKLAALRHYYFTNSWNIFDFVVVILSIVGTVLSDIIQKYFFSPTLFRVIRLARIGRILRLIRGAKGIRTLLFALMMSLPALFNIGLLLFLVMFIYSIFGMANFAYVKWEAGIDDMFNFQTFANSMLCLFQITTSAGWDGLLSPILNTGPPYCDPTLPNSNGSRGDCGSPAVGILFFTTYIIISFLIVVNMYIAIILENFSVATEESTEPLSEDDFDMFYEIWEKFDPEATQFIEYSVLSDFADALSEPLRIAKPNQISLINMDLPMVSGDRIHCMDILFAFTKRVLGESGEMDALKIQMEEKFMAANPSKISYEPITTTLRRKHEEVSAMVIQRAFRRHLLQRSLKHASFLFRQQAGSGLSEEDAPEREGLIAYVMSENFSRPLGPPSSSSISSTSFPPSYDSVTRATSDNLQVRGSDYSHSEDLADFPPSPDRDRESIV
# Excerpt: as §1
# All the voltage gated sodium channels subtypes (hNaV1.3, rNaV1.4, hNaV1.5 and hNaV1.7), along with β1 subunit to increase the current density and green fluorescent protein to serve as the report protein, were individually transiently transfected into HEK 293 cells using the lipofectamine 2000 (Invitrogen, Carlsbad, CA, USA) according to its manufacturer’s instructions. […] At 36–72 h after transfection, cells with green fluorescence were selected for whole-cell patch-clamp recording at room temperature. […]
# Sodium currents were recorded on experimental cells using whole-cell patch-clamp techniques at room temperature (20–25 °C). […] Experimental data were acquired and analyzed using the programs Clampfit 10.0 (Axon Instruments, Irvine, CA, USA) and Sigmaplot 90 (Sigma, St. Louis, MO, USA). […]
# Data were analyzed using the Clampfit (Molecular Devices, Irvine, CA, USA) and Sigmaplot 10.0 (Sigma, St. Louis, MO, USA) software programs. […]
# [5] = read-out: IC50 on rNaV1.4 (alanine mutants)
Structure (SMILES),"IC50 [1, 5] [nM]",further results
CC[C@H](C)[C@H](NC(=O)[C@@H](NC(=O)[C@H](CCCCN)NC(=O)[C@H](CCCNC(=N)N)NC(=O)[C@@H]1CSSC[C@@H]2NC(=O)[C@H](C)NC(=O)[C@H](CCCNC(=N)N)NC(=O)[C@H](CCCCN)NC(=O)[C@H](CO)NC(=O)[C@H](CC(=O)O)NC(=O)[C@@H]3CSSC[C@H](NC(=O)[C@H](CCCNC(=N)N)NC(=O)[C@H](CC(C)C)NC(=O)CNC(=O)[C@H](CCC(=O)O)NC(=O)[C@H](CSSC[C@H](NC(=O)[C@@H](N)Cc4ccc(O)cc4)C(=O)N[C@@H](CCC(N)=O)C(=O)N[C@@H](CCCCN)C(=O)N[C@@H](Cc4c[nH]c5ccccc45)C(=O)N[C@@H](CCSC)C(=O)N[C@@H](Cc4c[nH]c5ccccc45)C(=O)N[C@@H]([C@@H](C)O)C(=O)N3)NC2=O)C(=O)N[C@@H](CCCCN)C(=O)N[C@@H](CC(C)C)C(=O)N[C@@H](Cc2c[nH]c3ccccc23)C(=O)N1)[C@@H](C)CC)C(N)=O [JZTX-V],,"IC50 ([1]; three to six cells, read-out: IC50 on rNaV1.4): 5.12 ± 0.87 nM; inhibition of hNaV1.7 inward current (Figure 1b) [2]: approximately 45%; inhibition of hNaV1.3 inward current (Figure 1c) [3]: ~35%; decrease of hNaV1.5 activation (peak current) ([4]; 500 nM toxin, n = 8, −10 mV from −100 mV): 43% ± 6.5%; IC50 ([4]; HEK 293 cells with β1 subunit, 50-ms depolarization to −10 mV from −100 mV every 5 s, Hill fit, mean ± S.E., three to six cells, room temperature): 2700 ± 779 nM"
CC[C@H](C)[C@H](NC(=O)[C@@H](NC(=O)[C@H](CCCCN)NC(=O)[C@H](CCCNC(=N)N)NC(=O)[C@@H]1CSSC[C@@H]2NC(=O)[C@H](C)NC(=O)[C@H](CCCNC(=N)N)NC(=O)[C@H](CCCCN)NC(=O)[C@H](CO)NC(=O)[C@H](CC(=O)O)NC(=O)[C@@H]3CSSC[C@H](NC(=O)[C@H](CCCNC(=N)N)NC(=O)[C@H](CC(C)C)NC(=O)CNC(=O)[C@H](CCC(=O)O)NC(=O)[C@H](CSSC[C@H](NC(=O)[C@@H](N)Cc4ccc(O)cc4)C(=O)N[C@@H](CCC(N)=O)C(=O)N[C@@H](CCCCN)C(=O)N[C@@H](Cc4c[nH]c5ccccc45)C(=O)N[C@@H](CCSC)C(=O)N[C@@H](Cc4c[nH]c5ccccc45)C(=O)N[C@@H]([C@@H](C)O)C(=O)N3)NC2=O)C(=O)N[C@@H](C)C(=O)N[C@@H](CC(C)C)C(=O)N[C@@H](Cc2c[nH]c3ccccc23)C(=O)N1)[C@@H](C)CC)C(N)=O [K22A],659 ± 11,
CC[C@H](C)[C@H](NC(=O)[C@@H](NC(=O)[C@H](CCCCN)NC(=O)[C@H](CCCNC(=N)N)NC(=O)[C@@H]1CSSC[C@@H]2NC(=O)[C@H](C)NC(=O)[C@H](CCCNC(=N)N)NC(=O)[C@H](CCCCN)NC(=O)[C@H](CO)NC(=O)[C@H](CC(=O)O)NC(=O)[C@@H]3CSSC[C@H](NC(=O)[C@H](CCCNC(=N)N)NC(=O)[C@H](CC(C)C)NC(=O)CNC(=O)[C@H](CCC(=O)O)NC(=O)[C@H](CSSC[C@H](NC(=O)[C@@H](N)Cc4ccc(O)cc4)C(=O)N[C@@H](CCC(N)=O)C(=O)N[C@@H](CCCCN)C(=O)N[C@@H](Cc4c[nH]c5ccccc45)C(=O)N[C@@H](C)C(=O)N[C@@H](Cc4c[nH]c5ccccc45)C(=O)N[C@@H]([C@@H](C)O)C(=O)N3)NC2=O)C(=O)N[C@@H](CCCCN)C(=O)N[C@@H](CC(C)C)C(=O)N[C@@H](Cc2c[nH]c3ccccc23)C(=O)N1)[C@@H](C)CC)C(N)=O [M6A],252 ± 450,
CC[C@H](C)[C@H](NC(=O)[C@@H](NC(=O)[C@H](CCCCN)NC(=O)[C@H](CCCNC(=N)N)NC(=O)[C@@H]1CSSC[C@@H]2NC(=O)[C@H](C)NC(=O)[C@H](CCCNC(=N)N)NC(=O)[C@H](CCCCN)NC(=O)[C@H](CO)NC(=O)[C@H](CC(=O)O)NC(=O)[C@@H]3CSSC[C@H](NC(=O)[C@H](C)NC(=O)[C@H](CC(C)C)NC(=O)CNC(=O)[C@H](CCC(=O)O)NC(=O)[C@H](CSSC[C@H](NC(=O)[C@@H](N)Cc4ccc(O)cc4)C(=O)N[C@@H](CCC(N)=O)C(=O)N[C@@H](CCCCN)C(=O)N[C@@H](Cc4c[nH]c5ccccc45)C(=O)N[C@@H](CCSC)C(=O)N[C@@H](Cc4c[nH]c5ccccc45)C(=O)N[C@@H]([C@@H](C)O)C(=O)N3)NC2=O)C(=O)N[C@@H](CCCCN)C(=O)N[C@@H](CC(C)C)C(=O)N[C@@H](Cc2c[nH]c3ccccc23)C(=O)N1)[C@@H](C)CC)C(N)=O [R20A],2100 ± 280,
CC[C@H](C)[C@H](NC(=O)[C@@H](NC(=O)[C@H](CCCCN)NC(=O)[C@H](CCCNC(=N)N)NC(=O)[C@@H]1CSSC[C@@H]2NC(=O)[C@H](C)NC(=O)[C@H](CCCNC(=N)N)NC(=O)[C@H](CCCCN)NC(=O)[C@H](CO)NC(=O)[C@H](CC(=O)O)NC(=O)[C@@H]3CSSC[C@H](NC(=O)[C@H](CCCNC(=N)N)NC(=O)[C@H](CC(C)C)NC(=O)CNC(=O)[C@H](CCC(=O)O)NC(=O)[C@H](CSSC[C@H](NC(=O)[C@@H](N)Cc4ccc(O)cc4)C(=O)N[C@@H](CCC(N)=O)C(=O)N[C@@H](CCCCN)C(=O)N[C@@H](C)C(=O)N[C@@H](CCSC)C(=O)N[C@@H](Cc4c[nH]c5ccccc45)C(=O)N[C@@H]([C@@H](C)O)C(=O)N3)NC2=O)C(=O)N[C@@H](CCCCN)C(=O)N[C@@H](CC(C)C)C(=O)N[C@@H](Cc2c[nH]c3ccccc23)C(=O)N1)[C@@H](C)CC)C(N)=O [W5A],313 ± 260,
CC[C@H](C)[C@H](NC(=O)[C@@H](NC(=O)[C@H](CCCCN)NC(=O)[C@H](CCCNC(=N)N)NC(=O)[C@@H]1CSSC[C@@H]2NC(=O)[C@H](C)NC(=O)[C@H](CCCNC(=N)N)NC(=O)[C@H](CCCCN)NC(=O)[C@H](CO)NC(=O)[C@H](CC(=O)O)NC(=O)[C@@H]3CSSC[C@H](NC(=O)[C@H](CCCNC(=N)N)NC(=O)[C@H](CC(C)C)NC(=O)CNC(=O)[C@H](CCC(=O)O)NC(=O)[C@H](CSSC[C@H](NC(=O)[C@@H](N)Cc4ccc(O)cc4)C(=O)N[C@@H](CCC(N)=O)C(=O)N[C@@H](CCCCN)C(=O)N[C@@H](Cc4c[nH]c5ccccc45)C(=O)N[C@@H](CCSC)C(=O)N[C@@H](C)C(=O)N[C@@H]([C@@H](C)O)C(=O)N3)NC2=O)C(=O)N[C@@H](CCCCN)C(=O)N[C@@H](CC(C)C)C(=O)N[C@@H](Cc2c[nH]c3ccccc23)C(=O)N1)[C@@H](C)CC)C(N)=O [W7A],1920 ± 310,

# Reference: publication PMC4113750 (Toxins, 2014)
